Results reported in patent US9079964B2, “Immunoassay for cyclopropylindole based synthetic cannabinoids, metabolites and derivatives thereof” (Randox Laboratories Limited, priority 2013, dated 2015).

Assays:
[1] = test system: antiserum raised to Immunogen I; experiment: Competitive ELISA with IgG fraction of antiserum raised to Immunogen I (second bleed) and hapten 1-HRP detecting agent; assay type: binding, sheep
Method: (§1) The wells of an enhanced binding 96 well polystyrene microtiter plate were coated with IgG fraction of antiserum raised to Immunogen I or II, diluted in 10 mM Tris, pH 8.5 (125 μl/well). The appropriate antibody coating dilution was determined using standard ELISA checkerboard techniques. The plate was incubated overnight at 4° C., washed 4 times over 10 minutes with Tris buffered saline containing Tween20 (TBST) and tapped dry. Standard solutions (UR-144 N-pentanoic acid) were applied at 0, 0.625, 1.25, 2.5, 5, 10, 20 and 40 ng/ml and 50 μl of each was added to the appropriate wells. 75 μl of conjugate (appropriate hapten-HRP) diluted in Tris buffer (pH 7.2) containing EDTA, D-mannitol, sucrose, thimerosol and BSA, was added to each of the wells. The appropriate dilution of conjugate was also determined using standard ELISA checkerboard techniques. The plate was incubated at 25° C. for 1 hour. Excess unbound conjugate was removed by washing 6 times over a ten minute period with TBST. 125 μl of tetramethylbenzidine (TMB) substrate solution was added to each well of the plate that was then incubated for 20 minutes in the dark at room temperature. The reaction was terminated by addition of 125 μl of 0.2 M H2SO4 to each well. The absorbance was then measured at 450 nm using a microtiter plate reader. The data are inputted to a computer program called ‘KC Junior’ (Biotek). It gives a 4 parameter fit curve and allows the calculation of concentrations between the standard runs. This program is used to calculate the IC50 values by dividing the 0 ng/ml optical density (OD) value by 2 and obtaining the concentration value from the curve for this OD.
(§2) Cross-reactivity was calculated according to the following formula: % CR=IC50, UR-144 N-pentanoic acid/IC50, cross reactant×100 Where % CR is the percentage cross-reactivity, IC50, UR-144 N-pentanoic acid is the concentration of UR-144 N-pentanoic acid that causes 50% displacement of signal and IC50, cross reactant is the concentration of the cannabinoid/metabolite/selected molecule that causes 50% displacement of signal.
In order to determine the specificity of the competitive ELISAs, standard solutions of a range of structurally related synthetic cannabinoids and their metabolites were prepared in TBST (Tris-Buffered Saline and Tween 20). Using the calibration curves generated and employing a single level of cross reactants, these were used to determine the cross-reactivity of the immunoassays with these substances.

[2] = test system: antiserum raised to Immunogen I; experiment: UR144/XLR11 Synthetic Cannabinoids (Spice) ELISA, antiserum raised to Immunogen I (third bleed); assay type: binding, sheep; details: for % Cross-Reactivity: Table 4, relative to UR144 N-Pentanoic Acid = 100; for Concentration of compounds that elicit a negative response: Table 4, negative response at this concentration
Method: as §1, §2
A further assay was carried out in accordance with the protocol described in Example 9 using Immunogen I.

[3] = target: CB1 receptor (Homo sapiens, UniProt P21554); details: CB1 versus CB2; cited from earlier work
Chain of CB1 receptor (P21554 whole entry): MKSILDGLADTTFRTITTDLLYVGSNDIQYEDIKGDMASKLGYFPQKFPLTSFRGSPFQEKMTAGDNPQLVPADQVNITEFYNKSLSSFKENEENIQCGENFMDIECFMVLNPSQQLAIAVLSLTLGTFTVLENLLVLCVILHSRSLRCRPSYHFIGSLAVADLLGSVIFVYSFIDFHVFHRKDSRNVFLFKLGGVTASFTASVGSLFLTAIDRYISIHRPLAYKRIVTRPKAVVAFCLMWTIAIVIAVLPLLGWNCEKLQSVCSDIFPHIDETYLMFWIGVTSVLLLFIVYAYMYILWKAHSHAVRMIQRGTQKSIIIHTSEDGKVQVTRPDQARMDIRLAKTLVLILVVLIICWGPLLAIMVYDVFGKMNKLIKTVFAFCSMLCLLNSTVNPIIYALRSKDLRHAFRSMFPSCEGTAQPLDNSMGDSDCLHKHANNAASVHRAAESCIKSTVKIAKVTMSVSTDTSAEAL

[4] = test system: antibodies provided in European patent application number 2,487,155; details: antibodies of EP 2,487,155; cited from earlier work
[5] = Table 1, B = absorbance at 450 nm at x ng/ml standard, B0 at 0 ng/ml, second bleed
[6] = Table 1, CR based on 100% for UR-144 N-pentanoic acid
[7] = Table 1, standard concentration which produces 50% B/B0, second bleed
[8] = Table 2, cross-reactant at 100 ng/ml (single level)
[9] = Table 2, cross-reactant tested at 100 ng/ml
[10] = Table 2, cross-reactant tested at 100 ng/ml, relative to UR-144 N-pentanoic acid

Structure (SMILES) | % B/BO [1, 5] [%] | % Cross-reactivity (CR) [1, 6] [%] | IC50 [1, 7] [µg/mL] | % Cross-Reactivity [2] [%] | % B/BO [1, 8] [%] | IC50 [1, 9] [µg/mL] | % Cross-reactivity (CR) [1, 10] [%] | Concentration of compounds that elicit a negative response [2] [ng/mL] | lower affinity for the CB1 receptor than for CB2 [3] [×] | cross-reactivity (in words) [4]
CC1(C)C(C(=O)c2cn(CCCCC(=O)O)c3ccccc23)C1(C)C [UR-144 N-pentanoic acid] | 16.8 | 100 | 0.003484 | 100 | – | – | – | – | – | –
CC1(C)C(C(=O)c2cn(CCCCCF)c3ccccc23)C1(C)C [XLR-11, (1-(5-fluoropentyl)-1H-Indol-3-yl)(2,2,3,3-tetramethylcyclopropyl) methanone] | 24.0 | 36.9 | 0.009454 | 29 | – | – | – | – | – | –
CCCCCn1cc(C(=O)c2ccc(C)c3ccccc23)c2ccccc21 [JWH-122] | – | – | – | – | 97.01 | >0.1 | <3.0 | 100 | – | –
CCCCCn1cc(C(=O)c2ccc(Cl)c3ccccc23)c2ccccc21 [JWH-398] | – | – | – | – | 88.86 | >0.1 | <3.0 | 100 | – | –
CCCCCn1cc(C(=O)Cc2ccccc2OC)c2ccccc21 [JWH-250] | – | – | – | – | 85.90 | >0.1 | <3.0 | 100 | – | –
CCCn1c(C)c(C(=O)c2cccc3ccccc23)c2ccccc21 [JWH-015] | – | – | – | – | 89.77 | >0.1 | <3.0 | 100 | – | –
CCCCCn1cc(C(=O)C2C(C)(C)C2(C)C)c2ccccc21 [UR-144, (1-pentyl-1H-Indol-3-yl)(2,2,3,3-tetramethylcyclopropyl) methanone] | 40.5 | 15.3 | 0.022815 | 19 | – | – | – | – | 83 | no significant cross-reactivity
C=CCCCn1cc(C(=O)c2cccc3ccccc23)c2ccccc21 [JWH-022] | – | – | – | – | 91.83 | >0.1 | <3.0 | 100 | – | –
CN1CCCCC1Cn1cc(C(=O)c2cc([N+](=O)[O-])ccc2I)c2ccccc21 (stereo not shown) [AM1241] | – | – | – | – | 77.96 | >0.1 | <3.0 | 100 | – | –
CCCCn1cc(C(=O)c2cccc3ccccc23)c2ccccc21 [JWH-073] | – | – | – | – | 90.44 | >0.1 | <3.0 | 100 | – | –
O=C(c1cccc2ccccc12)c1cn(CCCCCO)c2ccccc12 [JWH-018 N (5 hydroxypentyl) metabolite, 1-(5-hydroxypentyl)-1H-indol-3-yl(naphthalen-1-yl)methanone] | – | – | – | – | 87.56 | >0.1 | <3.0 | 100 | – | –
